Reference: PubChem BioAssay (NCI)
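Five concentrations, 48 hours, 96-well plates. The concentration for 50% growth inhibition is given as GI50. TGI: total growth inhibition.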

Legend:
Assay in all cases: NCI anticancer screen, dose series, 48 h
OVCAR-3 ovarian = test system: OVCAR-3 ovarian
UACC-62 melanoma = test system: UACC-62 melanoma
NCI-H23 lung = test system: NCI-H23 lung
CAKI-1 renal = test system: CAKI-1 renal
SK-MEL-2 melanoma = test system: SK-MEL-2 melanoma
MDA-MB-231 breast = test system: MDA-MB-231 breast
EKVX NSCLC = test system: EKVX NSCLC
U251 CNS = test system: U251 CNS
CCRF-CEM leukemia = test system: CCRF-CEM leukemia
SNB-75 CNS = test system: SNB-75 CNS
RPMI-8226 leukemia = test system: RPMI-8226 leukemia
M14 melanoma = test system: M14 melanoma
SN12C renal = test system: SN12C renal
HCT-116 colon = test system: HCT-116 colon
NCI/ADR-RES ovarian = test system: NCI/ADR-RES ovarian
OVCAR-8 ovarian = test system: OVCAR-8 ovarian
COLO 205 colon = test system: COLO 205 colon
KM12 colon = test system: KM12 colon
SR leukemia = test system: SR leukemia
TK-10 renal = test system: TK-10 renal
HCT-15 colon = test system: HCT-15 colon
MOLT-4 leukemia = test system: MOLT-4 leukemia
LOX IMVI melanoma = test system: LOX IMVI melanoma
RXF 393 renal = test system: RXF 393 renal
T-47D breast = test system: T-47D breast
MDA-MB-435 = test system: MDA-MB-435
A498 renal = test system: A498 renal
SF-539 CNS = test system: SF-539 CNS
IGROV1 ovarian = test system: IGROV1 ovarian
PC-3 prostate = test system: PC-3 prostate
OVCAR-5 ovarian = test system: OVCAR-5 ovarian
HT29 colon = test system: HT29 colon
DU-145 prostate = test system: DU-145 prostate
SNB-19 CNS = test system: SNB-19 CNS
HCC-2998 colon = test system: HCC-2998 colon
HS 578T breast = test system: HS 578T breast
SF-295 CNS = test system: SF-295 CNS
K-562 leukemia = test system: K-562 leukemia
HOP-92 NSCLC = test system: HOP-92 NSCLC
A549 NSCLC = test system: A549 NSCLC
NCI-H522 lung = test system: NCI-H522 lung
SF-268 CNS = test system: SF-268 CNS
NCI-H460 lung = test system: NCI-H460 lung
UACC-257 melanoma = test system: UACC-257 melanoma
786-0 renal = test system: 786-0 renal
MCF7 breast = test system: MCF7 breast
ACHN renal = test system: ACHN renal
SW-620 colon = test system: SW-620 colon
SK-MEL-28 melanoma = test system: SK-MEL-28 melanoma
MALME-3M melanoma = test system: MALME-3M melanoma
NCI-H226 lung = test system: NCI-H226 lung
SK-MEL-5 melanoma = test system: SK-MEL-5 melanoma
OVCAR-4 ovarian = test system: OVCAR-4 ovarian
BT-549 breast = test system: BT-549 breast
UO-31 renal = test system: UO-31 renal
SK-OV-3 ovarian = test system: SK-OV-3 ovarian
HOP-62 NSCLC = test system: HOP-62 NSCLC
HL-60(TB) leukemia = test system: HL-60(TB) leukemia

SMILES: N#Cc1ccccc1C#C/C=C\C#Cc1cnccn1
- GI50 (OVCAR-3 ovarian): 1.22 µM
- TGI (OVCAR-3 ovarian): 18.3 µM
- GI50 (UACC-62 melanoma): 14.5 µM
- TGI (UACC-62 melanoma): > 89.9 µM
- GI50 (NCI-H23 lung): 7.04 µM
- TGI (NCI-H23 lung): 22.4 µM
- GI50 (CAKI-1 renal): 6.95 µM
- TGI (CAKI-1 renal): > 23.4 µM
- GI50 (SK-MEL-2 melanoma): 8.34 µM
- TGI (SK-MEL-2 melanoma): > 100 µM
- GI50 (MDA-MB-231 breast): 11.1 µM
- TGI (MDA-MB-231 breast): 44.1 µM
- GI50 (EKVX NSCLC): 44.1 µM
- TGI (EKVX NSCLC): > 100 µM
- GI50 (U251 CNS): 30.5 µM
- TGI (U251 CNS): > 100 µM
- GI50 (CCRF-CEM leukemia): 3.09 µM
- TGI (CCRF-CEM leukemia): > 100 µM
- GI50 (SNB-75 CNS): > 73.9 µM
- TGI (SNB-75 CNS): > 100 µM
- GI50 (RPMI-8226 leukemia): 2.71 µM
- TGI (RPMI-8226 leukemia): > 21.5 µM
- GI50 (M14 melanoma): 5.78 µM
- TGI (M14 melanoma): 13.8 µM
- GI50 (SN12C renal): 13.8 µM
- TGI (SN12C renal): 41.5 µM
- GI50 (HCT-116 colon): 12.5 µM
- TGI (HCT-116 colon): > 100 µM
- GI50 (NCI/ADR-RES ovarian): 4.32 µM
- TGI (NCI/ADR-RES ovarian): > 30.6 µM
- GI50 (OVCAR-8 ovarian): 33.9 µM
- TGI (OVCAR-8 ovarian): 98.4 µM
- GI50 (COLO 205 colon): 19.7 µM
- TGI (COLO 205 colon): > 57.5 µM
- GI50 (KM12 colon): 3.49 µM
- TGI (KM12 colon): > 31.5 µM
- GI50 (SR leukemia): > 20.7 µM
- TGI (SR leukemia): > 79.7 µM
- GI50 (TK-10 renal): 13 µM
- TGI (TK-10 renal): 63.6 µM
- GI50 (HCT-15 colon): 20.6 µM
- TGI (HCT-15 colon): > 61 µM
- GI50 (MOLT-4 leukemia): > 24.3 µM
- TGI (MOLT-4 leukemia): > 100 µM
- GI50 (LOX IMVI melanoma): > 21.1 µM
- TGI (LOX IMVI melanoma): > 60.9 µM
- GI50 (RXF 393 renal): > 37 µM
- TGI (RXF 393 renal): > 74.1 µM
- GI50 (T-47D breast): > 66.3 µM
- TGI (T-47D breast): > 100 µM
- GI50 (MDA-MB-435): 3.14 µM
- GI50 (A498 renal): 16.2 µM
- TGI (A498 renal): 52.3 µM
- GI50 (SF-539 CNS): 9.5 µM
- TGI (SF-539 CNS): 46.2 µM
- GI50 (IGROV1 ovarian): 38.1 µM
- TGI (IGROV1 ovarian): > 100 µM
- GI50 (PC-3 prostate): 30.9 µM
- TGI (PC-3 prostate): > 100 µM
- GI50 (OVCAR-5 ovarian): 6.09 µM
- TGI (OVCAR-5 ovarian): > 49.9 µM
- GI50 (HT29 colon): 8.72 µM
- TGI (HT29 colon): > 100 µM
- GI50 (DU-145 prostate): 25 µM
- TGI (DU-145 prostate): > 100 µM
- GI50 (SNB-19 CNS): 30.2 µM
- TGI (SNB-19 CNS): > 89.4 µM
- GI50 (HCC-2998 colon): 4.79 µM
- TGI (HCC-2998 colon): 28.2 µM
- GI50 (HS 578T breast): 27.5 µM
- TGI (HS 578T breast): > 93.1 µM
- GI50 (SF-295 CNS): 6 µM
- TGI (SF-295 CNS): > 25 µM
- GI50 (K-562 leukemia): 4.73 µM
- TGI (K-562 leukemia): > 100 µM
- TGI (HOP-92 NSCLC): > 28.4 µM
- GI50 (A549 NSCLC): 29.8 µM
- TGI (A549 NSCLC): > 95 µM
- GI50 (NCI-H522 lung): 18 µM
- TGI (NCI-H522 lung): > 65.9 µM
- GI50 (SF-268 CNS): 48.9 µM
- TGI (SF-268 CNS): > 100 µM
- GI50 (NCI-H460 lung): 39.4 µM
- TGI (NCI-H460 lung): > 100 µM
- GI50 (UACC-257 melanoma): 26.5 µM
- TGI (UACC-257 melanoma): > 82.3 µM
- GI50 (786-0 renal): 21 µM
- TGI (786-0 renal): > 79.3 µM
- GI50 (MCF7 breast): > 60 µM
- TGI (MCF7 breast): > 100 µM
- GI50 (ACHN renal): 32.9 µM
- TGI (ACHN renal): 98.7 µM
- GI50 (SW-620 colon): 5.85 µM
- TGI (SW-620 colon): > 41.9 µM
- GI50 (SK-MEL-28 melanoma): 35.2 µM
- TGI (SK-MEL-28 melanoma): > 100 µM
- GI50 (MALME-3M melanoma): 22.3 µM
- TGI (MALME-3M melanoma): 81.4 µM
- GI50 (NCI-H226 lung): 26.6 µM
- TGI (NCI-H226 lung): > 83.1 µM
- GI50 (SK-MEL-5 melanoma): 17 µM
- TGI (SK-MEL-5 melanoma): 45.4 µM
- GI50 (OVCAR-4 ovarian): 36 µM
- TGI (OVCAR-4 ovarian): > 100 µM
- GI50 (BT-549 breast): 35.4 µM
- TGI (BT-549 breast): > 100 µM
- GI50 (UO-31 renal): 44 µM
- TGI (UO-31 renal): > 100 µM
- GI50 (SK-OV-3 ovarian): 52.7 µM
- TGI (SK-OV-3 ovarian): > 100 µM
- GI50 (HOP-62 NSCLC): 29.3 µM
- TGI (HOP-62 NSCLC): > 64.6 µM
- GI50 (HL-60(TB) leukemia): 3.23 µM
- TGI (HL-60(TB) leukemia): > 24.1 µM
